Here are results for 6 molecules from patent US9649305B2, “PFKFB3 inhibitor and methods of use as an anti-cancer therapeutic” (ADVANCED CANCER THERAPEUTICS, LLC, priority 2012, dated 2017).

By IC50 is commonly meant the concentration that inhibits the measured activity by half. The term clearance denotes the volume of plasma or blood freed of the substance per unit of time. A lower clearance goes with a low capacity for elimination. The term half-life denotes the time needed for the level to fall by half in the phase considered. High values mean slow loss, low ones fast loss. The Cmax is the maximum level reached in the sampled fluid or tissue.

Series [1] has as its system Jurkat cell line (leukemia cell line). The series can be described thus: Toxicity / cell growth of Jurkat cell line. The class given is cell-based. As to conditions: Homo sapiens, Jurkat; Table 8; read-out: IC50, toxicity of Jurkat cell line (leukemia cell line). How it is done: The ability of PFK-158 to kill or inhibit the proliferation of cancer cells was measured using either the MTT assay, the alamarBlue® assay (Invitrogen, Grand Island, N.Y.), or the CellTiter Glo™ assay (Promega, Madison, Wis.) using 48 or 72 hours exposure.
Cells of the desired tumor cell line were plated at 2×10^5 cells/ml in 96 well plates. Twice the indicated concentrations of the compounds of the invention were added to cells the following day in an equal volume of media. 72 hours later, cells were lysed and subjected to ATP determination using the CellTiter-Glo™ Luminescent Cell Viability Assay kit. Experiments were performed in triplicate. When using the MTT assay or the alamarBlue® assay, the experimental conditions are essentially similar; at the end of the incubation period, 20 microliters of the MTT solution is added per well and the samples are incubated for an additional four hours, rinsed, and absorbance at 570 nm was measured. Results for the inhibition of cell proliferation are reported as the IC50 (the concentration resulting in 50% inhibition of proliferation of the cell population) and are listed in Table 5 below. Cell lines include lung, colon, prostate, breast, ovarian, and pancreatic cancer lines.

The target in series [2] is T1, PFKFB3 (Homo sapiens, UniProt Q16875). The series is described as follows: Enzymatic activity of recombinant PFKFB3, ADP-Glo assay. The class given is biochemical. As to conditions: Table 8; read-out: IC50, Enzymatic activity of PFKFB3, ADP-Glo Assay. How it is done: The inducible bifunctional 6-Phosphofructo-2-kinase/fructose2,6-biphosphatase enzyme (PFKFB3) was expressed and purified in order to determine if PFK-158 inhibits enzymatic activity. PFKFB3 was prepared by expression in E. coli and purified by GST column and column chromatography. […] The recombinant protein was pure and active as determined by the results of a commercially available kinase activity assay (ADP-Glo™, Promega, Madison, Wis.).
T1 sequence (Q16875 whole entry): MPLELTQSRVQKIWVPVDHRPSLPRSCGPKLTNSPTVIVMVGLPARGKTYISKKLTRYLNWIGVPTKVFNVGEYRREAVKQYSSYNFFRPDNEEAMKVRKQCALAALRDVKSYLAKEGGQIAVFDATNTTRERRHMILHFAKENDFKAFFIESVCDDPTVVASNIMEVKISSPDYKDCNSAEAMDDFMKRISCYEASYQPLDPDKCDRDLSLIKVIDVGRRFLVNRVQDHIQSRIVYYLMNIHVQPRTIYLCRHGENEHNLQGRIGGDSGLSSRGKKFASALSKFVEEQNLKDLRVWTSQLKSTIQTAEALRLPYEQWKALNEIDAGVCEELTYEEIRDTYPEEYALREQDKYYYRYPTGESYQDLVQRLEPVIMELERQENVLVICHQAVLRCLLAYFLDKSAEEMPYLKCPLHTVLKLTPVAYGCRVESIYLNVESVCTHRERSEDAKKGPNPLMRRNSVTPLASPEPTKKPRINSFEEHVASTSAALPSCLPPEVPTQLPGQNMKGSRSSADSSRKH
On the technique in general: ADP-Glo first removes unused ATP, then detects ADP through luciferase.

A further series relates to Jurkat cells. The series is described as follows: Inhibition of 14C-2-deoxyglucose uptake. The class given is cell-based. As to conditions: Homo sapiens, Jurkat; Table 8; read-out: IC50, Inhibition of 2 deoxyglucose uptake. As to the method:
Inhibition of PFKFB3 results in inhibiting glycolysis. Several feedback or feedforward activation and inhibition mechanisms exist so that, by a feedback mechanism, inhibiting the activity of PFKFB3 might inhibit glucose uptake by cells. An assay was developed to determine if there was inhibition of glucose uptake following exposure PFK-158. Briefly, Jurkat cells were plated at 10^5 cells/mL in RPMI 1640 supplemented with 10% fetal bovine serum and 50 μg/mL gentamicin sulfate. Cells were immediately treated with vehicle or 0.5 μmol/L of PFK-158 for 3 hours and subsequently placed in glucose-free RPMI 1640 for 30 min. ^14C-2-deoxyglucose (0.25 μCi/mL; Perkin Elmer) was added for an additional 60 min and cells were then washed three times with ice-cold RPMI 1640 containing no glucose. Cell lysates were collected in 500 μL of 0.1% SDS and scintillation counts (counts/min) were measured on 400 μL of lysate. Counts were normalized to protein concentration.

Series [3] can be described thus: IV pharmacokinetics in mice. The class given is in vivo, Balbc mice. As to conditions: mouse, plasma, 5 mg/kg, Table 9, BalbC mice, IV dosing; for AUC(0-inf): read-out: AUC0-inf; for Cmax: read-out: Cmax. How it is done:
The pharmacokinetic (PK) parameters for PFK-158 were determined in mice following IV (intravenous) administration in mice and rats. A typical study design includes six animals (male or female) 7 to 8 weeks old.
Mouse pharmacokinetic properties using a dose of 5 mg/kg were determined after IV administration using a 10% DMSO, 10% PEG-200, 10% Solutol:ethanol (1:1) and 70% D5W solution or any other pharmaceutically acceptable parenteral formulation. Blood samples were collected at different intervals. Plasma samples were extracted and analyzed using an LC-MS/MS method. Similar protocols were used for the rat PK study (Sprague Dawley rats; 30 mg/kg), although the formulation for rat PK studies differed (30% Captisol, pH 3.0 solution). Time vs. plasma concentration plots were prepared as shown in FIGS. 4 (BalbC mice) and 5 (SD rats), respectively. Pharmacokinetic parameters were calculated and are provided below in Table 7.

Series [4] addresses T1, PFKFB3. The series is described as follows: Enzymatic activity of PFKFB3 in cells (F2,6BP levels, Van Schaftingen method). The class given is cell-based. Set-up: endogenous in cells; host or cells: Jurkat cells. As to conditions: Table 8; read-out: IC50, Enzymatic activity of PFKFB3 in cells. As to the method: Inhibition of PFKFB3 can also be measured in cells by measuring fructose-2,6-biphosphate levels according to the Van Schaftingen method (Eur. J. of Biochem, 129: 191 (1982)). This method enables measurement of the inhibition in a cellular environment, a model more relevant than the pure recombinant protein. Briefly, Jurkat cells were plated at 1×10^5 cells/mL and incubated with different concentrations of PFK-158 for 3 hours. Samples were collected and cells were lysed. Extracts were characterized as described in previous reports and normalized to protein concentration.

A short description of series [5]: IV pharmacokinetics in rats, 40 mg/kg. The class given is in vivo. As to conditions: IV 40 mg/kg; for Plasma AUC0→t: Captisol solution. As to the method:
(§1) In another embodiment, a cyclodextrin based solution was used to investigate the PK profile of PFK-158, 2HCl at a higher concentration in both rats and dogs.
(§2) The solution was prepared with 40% w/v Captisol® in water for injection, 5% Mannitol, and a pH 2.3 citrate buffer leading to a 8 mg/ml concentration of PFK-158, 2HCl. This solution was safely administered IV to rats and dogs at a dose of 40 mg/kg. Blood samples were taken over a 24 hour period and analyzed. […] Pharmacokinetic parameters were calculated in the same way in dogs: plasma AUC0→24 values of 16,100±700 and 15,900±2600 hr·ng/mL, and plasma C5 min values of 6960±1180 and 6900±900 ng/mL were obtained for male and female dogs, respectively.

Series [6] is described as follows: IV pharmacokinetics in dogs, 40 mg/kg. The series is classed as in vivo. Particulars: IV 40 mg/kg. As to the method: as §1, §2

On to `COc1ccc2nc(/C=C/C(=O)c3ccncc3)ccc2c1` [PFK-138, 3-(6-methoxy-quinolin-2-yl)-1-pyridin-4yl-propenone], for which the IC50 in series [1] was 1200 ± 200 nM. Also, at PFKFB3 [2], the IC50 is 431 ± 34 nM. The IC50 in the series on Jurkat cells turned out to be 2200 ± 300 nM. For the same molecule, in series [3], the clearance was 154 mL/min/kg, the half-life is 42 min, the AUC(0-inf) was 541 ng·h/mL and the Cmax came out at 991 ng/mL. For the same molecule, the IC50 at PFKFB3 [4] was found to be 7.4 ± 1.8 µM.
For `COc1ccc2nc(/C=C/C(=O)c3ccnc(OC)c3)ccc2c1` [PFK-144, 1-(2-methoxy-pyridin-4-yl)-3-(6-methoxy-quinolin-2-yl)-propenone], the concentration for half-maximal inhibition (IC50) came to 1700 ± 300 nM in series [1], 654 ± 94 nM at PFKFB3 [2], 3100 ± 500 nM in the series on Jurkat cells and 10.7 ± 0.3 µM at PFKFB3 [4]. In addition, the clearance in series [3] is 120 mL/min/kg. Moreover, in series [3], the half-life was 168 min. In addition, in series [3], the AUC(0-inf) came out at 696 ng·h/mL. Besides, the Cmax in series [3] is 1500 ng/mL.
Regarding `O=C(/C=C/c1ccc2cc(OCCN3CCCCC3)ccc2n1)c1ccncc1` [PFK-150, 3-(6-(2-piperidin-1-yl-ethoxy)-quinolin-2-yl)-1-pyridin-4-yl-propenone], the IC50 turned out to be 2500 ± 400 nM in series [1], 802 ± 177 nM at PFKFB3 [2], 3800 ± 800 nM in the series on Jurkat cells and 15.6 ± 1.4 µM on PFKFB3 [4]. In addition, the clearance in series [3] is 1330 mL/min/kg. The half-life in series [3] is 150 min. In addition, the AUC(0-inf) in series [3] is 63 ng·h/mL. For the same molecule, in series [3], the maximum concentration (Cmax) came out at 40 ng/mL.
Take `O=C(/C=C/c1ccc2cccc(C(F)(F)F)c2n1)c1ccncc1` [PFK-153, 1-Pyridin-4-yl-3-(8-trifluoromethyl-quinolin-2-yl)-propenone]: in series [1], the IC50 was found to be 900 ± 100 nM. Further, the 50% inhibitory concentration (IC50) at PFKFB3 [2] came to 173 ± 23 nM. The IC50 with Jurkat cells was 1200 ± 600 nM. Further, in series [3], the clearance worked out at 327 mL/min/kg, the half-life is 228 min, the AUC(0-inf) was 225 ng·h/mL and the Cmax was found to be 397 ng/mL. For the same molecule, the IC50 on PFKFB3 [4] is 6 ± 0.6 µM.
Regarding `Cc1ccc2ccc(/C=C/C(=O)c3ccncc3)nc2c1` [PFK-154, 3-(7-Methyl-quinolin-2-yl)-1-pyridin-4-yl-propenone], the IC50 in series [1] was 1300 ± 100 nM. The 50% inhibitory concentration (IC50) in the series with Jurkat cells amounted to 2200 ± 600 nM. Also, in series [3], the clearance came to 75 mL/min/kg, the half-life was 366 min, the AUC(0-inf) was 1100 ng·h/mL and the Cmax came to 672 ng/mL. The 50% inhibitory concentration (IC50) on PFKFB3 [4] was found to be 11.3 ± 0.6 µM.
Consider `Cl.Cl.O=C(/C=C/c1ccc2ccc(C(F)(F)F)cc2n1)c1ccncc1` [PFK-158, 2HCl], for which the “plasma Cmax” value is given as 39,500±10,000 ng/mL in series [5] (female rats) and 51,400±6300 ng/mL in series [5] (male rats). Moreover, the entries for the “Plasma AUC0→t” value in series [5] (female rats) and in series [5] (male rats) were 27,700±5800 hr·ng/mL and 37,600±2800 hr·ng/mL, respectively. Moreover, the results for the “plasma AUC0→24” value in series [6] (female dogs) and in series [6] (male dogs) were 15,900±2600 hr·ng/mL and 16,100±700 hr·ng/mL, respectively. Moreover, the results for the “plasma C5 min” value in series [6] (female dogs) and in series [6] (male dogs) were 6900 ± 900 ng/mL and 6960 ± 1180 ng/mL, respectively.
